Legend:
[1] = system: HMC 1.1 line (containing the p.V560G mutation); assay: cells; conditions: Homo sapiens, 48 h
Protocol: (§1) Used in the research were four mastocyte cell lines: • HMC-1.1 containing the pV560G KIT gene mutation; • HMC-1.2 containing the pG560V and pD816V KIT gene mutations, • ROSA KIT D816V containing the pD816V KIT mutation; • ROSA KIT WT - line containing no KIT mutation [21-23].
(§2) The culture was grown in a cell incubator at the temperature of 37 °C and at 5% CO2 content, in sterile conditions in a chamber with laminar flow of sterile air. Used was Iscove's Modified Dulbecco's Medium (Merck Millipore) supplemented with 1.2 mM of α-thioglycerol, 50 mL of Foetal Bovine Serum (ATCC), and 5 mL of antibiotics (PEN./STREP. 100x, Merck Millipore)
(§3) The cells were grown for 48 hours on a 96-well plate at the concentrations 5 ×10^4 cells per well for the HMC 1.1. and HMC 1.2 lines, respectively, and at the concentration of 7.5 ×10^4 cells per well for the ROSA KIT D816V and ROSA KIT WT lines.
(§4) Then, the working 2-ME solution was diluted in 100 µL of DMSO so as to obtain the final solution concentrations of 1, 5, and 10 in 100 µL of DMSO, respectively.
(§5) The control were cells treated with the corresponding amounts of DMSO with no 2-ME added.
(§6) Following 48 hours into incubation, each well was added 50 µL of the XTT solution (Roche Diagnostics GmbH, Mannheim, Germany) prepared in accordance with the manufacturer's instructions. After 4 hours of cell incubation with XTT the level of absorbance was read using the Cytation 3 Imaging Reader (BioTek, USA) at the wavelength of 560 nm.

[2] = system: ROSA KIT WT line (without KIT gene mutation); assay: cells; conditions: 48 h, read-out: inhibited the cell growth by
Protocol: as §1
(§7) The culture was grown in a cell incubator at the temperature of 37 °C and at 5% CO2 content. […] Used to grow the culture was Iscove's Modified Dulbecco's Medium (Merck Millipore) added with 50 mL of Foetal Bovine Serum (ATCC), and 5 mL of antibiotics (PEN./STREP. 100x, Merck Millipore), while the medium used for the ROSA KIT WT line was additionally supplemented with bone marrow stem cell growth factor rhSCF (R&D Systems, Minneapolis, USA) in the final concentration of 80 ng/ml.
as §3, §4, §5, §6

[3] = system: HMC 1.1 line (containing the p.V560G mutation)
Protocol: as §1, §2, §3, §4, §5, §6

[4] = system: ROSA KIT WT line (without KIT gene mutation)
Protocol: as §1, §7, §3, §4, §5, §6

Question: Which viability at 5 µM ([1]; read-out: cell viability, HMC 1.1 line, 5 µM, 48 hours, remaining viability vs DMSO control) does the source give for COc1cc2c(cc1O)CC[C@@H]1[C@@H]2CC[C@]2(C)[C@@H](O)CC[C@@H]12 [2-ME, 2-methoxyestradiol] here?
Answer: 63%

Question: What about the viability at 10 µM ([1]; read-out: cell viability, HMC 1.1 line, 10 µM, 48 hours, remaining viability vs DMSO control) of the same compound?
Answer: 67%

Question: And the inhibition at 1 µM ([1]; read-out: reduced proliferation of cells by)?
Answer: 29%

Question: What about the viability at 1 µM ([1]; read-out: viability of the cells, HMC 1.1 line, 1 µM, 48 hours, remaining viability vs DMSO control) of the same compound?
Answer: 71%

Question: What about the inhibition at 1 µM [2] of the same compound?
Answer: 5%

Question: And the inhibition at 5 µM [2]?
Answer: 12%

Question: And the inhibition at 10 µM [2]?
Answer: 14%

Question: And the “cytotoxicity to neoplastic MCs” value [3]?
Answer: selectively cytotoxic

Question: What about the “cytotoxicity to regular MCs” value [4] of the same compound?
Answer: did not demonstrate any such activity

— patent EP4436582B1, “2-METHOXYESTRADIOL FOR USE IN THE TREATMENT OF MASTOCYTOSIS” (Gdanski Uniwersytet Medyczny, priority 2021, dated 2023)
